The source of these data is patent publication US6080396A, “Anthracycline compound derivative and pharmaceutical preparation containing the same” (Japan Science and Technology Corporation, priority 1995, dated 2000).

As a reminder, the LD50 is the dose expected to kill half of the subjects tested. Lower therefore signals greater toxicity.

The structures appear in SMILES notation. Structures can show the parent of a compound that is named as a salt.

The test system of data set [1] is mouse Colon 26 adenocarcinoma. In words: Antitumor activity on mouse Colon 26 adenocarcinoma (Application Example 1). The format is in vivo. The conditions noted are these: for Tumor-disappeared mice: i.v., every 4th day, three times. The procedure:
(§1) When the volume of the tumor reached around 100 mm^3, the block copolymer-drug complex pharmaceutical preparation synthesized in Example 3, 4 or 5 or adriamycin hydrochloride was intravenously administered once a day every 4th day in total of three times (indicated by arrows in the drawings) to examine their antitumor effects. […] Each dose was determined as the amount of adriamycin of the peak 1 of the HPLC chromatogram. The antitumor effects of each drug were estimated based on the tumor growth curve, the number of mice in which the tumor disappeared and the chemotherapeutic index. The results are shown in Tables 1 and 2 and FIGS. 16 and 17.

A short description of data set [2]: LD50 for comparison of chemotherapeutic index (Table 2). The following applies: mouse, in vivo, iv. The protocol:
as §1

The nature of data set [3]: Drug concentration in blood plasma by radioactivity (Application Example 2). The conditions noted are these: for % of dose/ml (blood plasma): i.v., total of adriamycin and adriamycin dimer, 14C. The procedure: Colon 26 adenocarcinoma cells were transplanted subcutaneously in the subaxillary region of each CDF1 female mouse, to which the block copolymer-drug complex pharmaceutical preparation prepared in Example 6 or 7 or ^14 C-labeled adriamycin hydrochloride was intravenously administered 12 days after transplanting. Each drug was used by diluting it in physiological saline prior to its use. After 15 minutes and 1, 4, 24 and 48 hours of the administration, blood samples were collected and various organs were excised. The drug concentrations in the blood plasma and each internal organ were determined by measuring radioactivity thereof using a liquid scintillation counter. In this test, both adriamycin and adriamycin dimer are labeled with ^14 C.

Data set [4] is described as follows: Drug concentration in tumor by radioactivity (Application Example 2). The format is in vivo, CDF1 female mouse. The conditions noted are these: mouse, iv, i.v., total of adriamycin and adriamycin dimer, 14C, read-out: % of dose/g (tumor).
Data set [5] can be described thus: Drug concentration in heart by radioactivity (Application Example 2). The format is in vivo, CDF1 female mouse. The following applies: mouse, iv, i.v., total of adriamycin and adriamycin dimer, 14C, read-out: % of dose/g (heart).
Data set [6] has as its system mouse Colon 26 adenocarcinoma. In words: Antitumor activity on mouse Colon 26 adenocarcinoma (Application Example 3). The data set is classed as in vivo. The conditions noted are these: i.v., every 4th day, three times. The protocol: In the case of the pharmaceutical preparation of Example 8, its effect obtained from the only first administration was also examined. […] Each dose was determined as the amount of adriamycin of the peak 1 of the HPLC chromatogram. The antitumor effects of each drug were estimated based on the tumor growth curve and the number of mice in which the tumor disappeared. The results are shown in Table 6 and FIGS. 25, 26 and 27.

`COc1cccc2c1C(=O)c1c(O)c3c(c(O)c1C2=O)C[C@@](O)(C(=O)CO)C[C@@H]3O[C@H]1C[C@H](N)[C@H](O)[C@H](C)O1` [Adriamycin hydrochloride, adriamycin hydrochloride]: the Tumor-disappeared mice in data set [1] (5 mg/kg) is recorded as 0/5; in data set [1] (10 mg/kg), 2/5; in data set [6] (5 mg/kg), 0/5; in data set [6] (10 mg/kg) it was 2/5. Further, the “Min T/C42 (minimum dose when T/C (%) becomes 42% or less on the 14th day after the initial administration)” value in data set [1] (14th day after initial administration) came out at 5.95. In addition, in data set [1] (LD50 /(Min T/C42)), the “C. index (chemotherapeutic index: LD50/(Min T/C42))” value was 2.52. Also, in data set [2], the 50% lethal dose (LD50) turned out to be 15 mg/kg. The “% of dose/ml (blood plasma)” value in data set [3] (15 minutes) was 0.47 % of dose/ml; in data set [3] (1 hour), 0.29 % of dose/ml; in data set [3] (4 hours), 0.36 % of dose/ml; in data set [3] (24 hours) it was 0.10 % of dose/ml; in data set [3] (48 hours), 0.07 % of dose/ml. The “drug retention in blood plasma” value in data set [3] (mouse, in vivo) is “quickly disappeared from blood plasma”. The tissue uptake at 0.25 h came out at 2.3 %ID/g in data set [4] (15 minutes) and 10.5 %ID/g in data set [5] (15 minutes). The figures for the tissue uptake at 1 h in data set [4] (1 hour) and in data set [5] (1 hour) were 2.4 %ID/g and 7 %ID/g, respectively. In addition, the tissue uptake at 4 h worked out at 1.7 %ID/g in data set [4] (4 hours) and 4.6 %ID/g in data set [5] (4 hours). The tissue uptake at 24 h turned out to be 1.3 %ID/g in data set [4] (24 hours) and 1.1 %ID/g in data set [5] (24 hours). The tissue uptake at 48 h amounted to 1 %ID/g in data set [4] (48 hours) and 0.5 %ID/g in data set [5] (48 hours).
